Legend:
[1] = Comparison of exposures in mice (6 months in food) with those expected at steady state in AD patients; format: in vivo
[2] = test system: neurofibrillary tangles (NFTs); assay: NFTs formation by Gallyas silver staining with quantitative image analysis after six months in food; format: in vivo, THY-Tau22 mice
From the text: 2-(Cyclohexylmethyl)-N-{2-[(2S)-1-methylpyrrolidin-2-yl]ethyl}-1,2,3,4-tetrahydroisoquinoline-7-sulfonamide difumarate monohydrate was administrated as a supplement in food at doses of 0.00034%, 0.0034% and 0.034% for six months in THY-Tau22 and wild type mice as follows: • Tg Veh (n=17) • Tg Active Ingredient—0.034% (n=17) • Tg Active Ingredient—0.0034% (n=17) • Tg Active Ingredient—0.00034% (n=17) • WT Veh (n=17) • WT Active Ingredient—0.034% (n=17) • WT Active Ingredient—0.0034% (n=17) • WT Active Ingredient—0.00034% (n=17) • WT groups treated with Active Ingredient are not used in the biochemical and histological studies.
After mice were decapitated, brains were removed and one hemibrain (used for histopathological studies) was immersion-postfixed for seven days at 4° C. with 4% formaldehyde (Carlo Erba/code 415691). The other hemibrain was prepared for biochemical quantitative measurements.
Post-fixed hemibrains were incubated in phosphate-buffered saline (PBS, P 3813-10PAK, Sigma), transferred to a 20% sucrose solution (code 27480.294—Prolabo) for 48 hours at 4° C. to ensure good cryopreservation of tissues during subsequent freezing. For freezing, hemibrains were immersed for one minute in isopentane solution (Ref. No. 24872-323—Prolabo) cooled with dry ice to between −25° C. and −30° C. and then stored at −25° C.
The entire hemibrains were cut with a cryostat (Microm, HM560). Serial sagittal brain tissue sections were collected onto Superfrost plus microscope glass slides (VWR) and then stored at −20° C. (sections of 20 μm of thickness), or placed in PBS-sodium azide 0.1% (S-2002, Sigma) containing wells to avoid any contamination and stored at 4° C. (sections of 30 μm of thickness).
NFTs are a major defining neuropathological feature of tau pathology in AD. They consist of bundles of paired helical filaments and straight filaments and their main constituent is the hyperphosphorylated microtubule-associated protein tau. Gallyas staining is generally used to stain neurofibrillary pathology (Sun A. et al., J. Histochem Cytochem, 2002, 50, 4, pp. 463-472).
A series of 20 μm hemibrain sections (directly mounted on slides) per mice was used for Gallyas staining (Braak and Braak, 1991, Brain Pathology, 1, pp. 213-216). The detailed protocol is as follows:
The following reagents are used: periodic acid (Sigma Ref. No. P 7875); sodium hydroxide (Prolabo Ref. No. 1737-1000); potassium iodide (Merck Ref. No. 1.05043.1000); silver nitrate (Sigma Ref. No. S.8157); 100% ascetic acid (Prolabo Ref. No. 20 104.298); sodium carbonate, anhydrous (Merck Ref. No. 1.06392-0500); ammonium nitrate (Prolabo Ref. No. 21280-293); silicotungstic acid (Sigma Ref. No. T 2786); 40% formaldehyde (Carlo Erba Ref. No. 415661); sodium thiosulfate (Sigma Ref. No. 21724-500 g).
A first stock solution (No. 1) was prepared by dissolving 50 g of anhydrous sodium carbonate in 1000 ml of deionized water. A second stock solution (No. II) was prepared by dissolving 2 g of ammonium nitrate, 2 g of silver nitrate, and 10 g of silicotungstic acid in 1000 ml of deionized water. A third stock solution (No. III) was prepared by dissolving 2 g of ammonium nitrate, 2 g of silver nitrate, 10 g of silicotungstic acid, and 7.3 ml of commercial 37% formaldehyde solution in 1000 ml of deionized water. The stock solutions are stable and can be stored in opaque containers.
Each of the following steps in the method are carried out with stirring. • 1. Pretreatment: The sections on slides were immersed in a solution of 5% periodic acid in water for 5 minutes, and then rinsed twice for 5 minutes in deionized water. • 2. Argentation: The silver iodide solution is freshly prepared by dissolving 4 g of sodium hydroxide in 50 ml of distilled water and adding 10 g of potassium iodide, which is mixed and allowed to dissolve completely. 3.5 ml of a solution of 1% silver nitrate in water is added while stirring. […]

## CN1CCC[C@H]1CCNS(=O)(=O)c1ccc2c(c1)CN(CC1CCCCC1)CC2 [2-(cyclohexylmethyl)-N-{2-[(2S)-1-methylpyrrolidin-2-yl]ethyl}-1,2,3,4-tetrahydroisoquinoline-7-sulfonamide difumarate monohydrate]
[1]; 0.00034% in food of mice
  corresponding human dose (safe for patients) by comparison of exposures: about 0.25 mg
[1]; 0.0034% in food of mice
  corresponding human dose (safe for patients) by comparison of exposures: about 2.5 mg
[2]; 0.00034% in food
  protective effect against pathological neurons (tangles number), all analyzed brain ROIs: no protective effect
[2]; 0.0034% in food, n=9
  NFTs formation in CA1 hippocampal subarea, vs vehicle: statistical significant decrease
  NFTs formation in cortex, vs vehicle: statistical significant decrease
[2]; 0.0034% in food, significant
  decrease in the number of tangles, CA1 hippocampal subarea: −25%
  decrease of the number of pathological neurons (NFTs, Gallyas), cortex: −48%
[2]; 0.0034% in food, statistically non-significant
  decrease in NFTs, amygdala: −19%
[2]; 0.034% in food, n=9
  NFTs formation in CA1 hippocampal subarea, vs vehicle: statistical significant decrease
  NFTs formation in amygdala, vs vehicle: statistical significant decrease
  NFTs formation in cortex, vs vehicle: statistical significant decrease
[2]; 0.034% in food, significant
  decrease in NFTs, amygdala: −31%
  decrease in the number of tangles, CA1 hippocampal subarea: −22%
  decrease of the number of pathological neurons (NFTs, Gallyas), cortex: −41%
